In the supplement of paper PMC11061612:

Legend:
Assay in all cases: Bliss excess, mean over the matrix (fraction); higher = more synergy
[1] = system: TE-8 (Esophageal Squamous Cell Carcinoma)
How it was run: (§1)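 Cell lines in DMEM/F12 or RPMI with 10% FBS were plated in 1536-well plates, held 24 hours at 37°C, 5% CO2, then given two-drug dose matrices for 72 hours (DMSO typically 0.2%). Viability was read by CellTiter-Glo 2.0 luminescence and scaled as inhibition from 0 (vehicle wells) to 1 (blank wells). Combination Emax is the second-highest inhibition in the matrix; Bliss excess is observed combination effect minus expected EA + EB − EA·EB, EA and EB being single-agent effects.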

[2] = system: PC-3_[JPC-3] (Lung Adenocarcinoma)
How it was run: as §1

[3] = system: OPM-2 (Plasma Cell Myeloma)
How it was run: as §1

[4] = system: 23132-87 (Gastric Carcinoma)
How it was run: as §1

[5] = system: GP5d (Colorectal Carcinoma)
How it was run: as §1

[6] = system: RKN (Other Solid Carcinomas)
How it was run: as §1

[7] = system: VAL (B-Cell Non-Hodgkin's Lymphoma)
How it was run: as §1

[8] = system: LXF-289 (Lung Adenocarcinoma)
How it was run: as §1

[9] = system: FADU (Head and Neck Carcinoma)
How it was run: as §1

WM793B (Melanoma) = system: WM793B (Melanoma)
How it was run: as §1

[10] = system: MFE-280 (Endometrial Carcinoma)
How it was run: as §1

SF268 (Low Grade Glioma) = system: SF268 (Low Grade Glioma)
How it was run: as §1

[11] = system: PANC-03-27 (Pancreatic Carcinoma)
How it was run: as §1

[12] = system: SU-DHL-10 (B-Cell Non-Hodgkin's Lymphoma)
How it was run: as §1

[13] = system: NCI-H23 (Lung Adenocarcinoma)
How it was run: as §1

[14] = system: COLO-680N (Esophageal Squamous Cell Carcinoma)
How it was run: as §1

[15] = system: MKN45 (Gastric Carcinoma)
How it was run: as §1

LN-229 (Glioblastoma) = system: LN-229 (Glioblastoma)
How it was run: as §1

[16] = system: RCM-1 (Colorectal Carcinoma)
How it was run: as §1

[17] = system: LK-2 (Squamous Cell Lung Carcinoma)
How it was run: as §1

`CN(C)CCCOc1ccc(-c2ccc3ncc4c(c3c2)n(C2CCOCC2)c(=O)n4C)cn1` [AZD0156] + C=CCn1c(=O)c2cnc(Nc3ccc(N4CCN(C)CC4)cc3)nc2n1-c1cccc(C(C)(C)O)n1 [AZD1775] (first compound max 1 µM, partner max 1 µM) showed a Bliss excess [1] of -0.0104, a Bliss excess [2] of -0.0018 and a Bliss excess [3] of -0.0607. It also gave a Bliss excess [4] of 0.0164, a Bliss excess [5] of -0.0369 and a Bliss excess [6] of -0.0683. It also gave a Bliss excess [7] of -0.0082, a Bliss excess [8] of 0.0066 and a Bliss excess [9] of 0.0316. For the same molecule, the Bliss excess (WM793B (Melanoma)) was -0.0081, the Bliss excess [10] was 0.0145 and the Bliss excess (SF268 (Low Grade Glioma)) was -0.0665. The Bliss excess [11] was -0.063, the Bliss excess [12] was -0.0088 and the Bliss excess [13] was -0.0406. For the same molecule, the Bliss excess [14] was -0.0252, the Bliss excess [15] was -0.0774 and the Bliss excess (LN-229 (Glioblastoma)) was -0.0831. The Bliss excess [16] was -0.0621 and the Bliss excess [17] was -0.048.
`CN(C)CCCOc1ccc(-c2ccc3ncc4c(c3c2)n(C2CCOCC2)c(=O)n4C)cn1` [AZD0156] + CCN(CCO)CCCOc1ccc2c(Nc3cc(CC(=O)Nc4cccc(F)c4)[nH]n3)ncnc2c1 [AZD2811] (first compound max 1 µM, 7x7, partner max 1 µM) gave a Bliss excess [1] of -0.0073, a Bliss excess [2] of -0.0524 and a Bliss excess [3] of 0.041. It also gave a Bliss excess [4] of -0.025, a Bliss excess [5] of 0.004 and a Bliss excess [6] of -0.0417. The Bliss excess [7] was -0.0341, the Bliss excess [8] was 0.052 and the Bliss excess [9] was 0.0626. The Bliss excess (WM793B (Melanoma)) was 0.0212, the Bliss excess [10] was 0.0072 and the Bliss excess (SF268 (Low Grade Glioma)) was -0.0204. The Bliss excess [11] was -0.0519, the Bliss excess [12] was -0.0813 and the Bliss excess [13] was -0.0119. The Bliss excess [14] was -0.0404, the Bliss excess [15] was 0.0034 and the Bliss excess (LN-229 (Glioblastoma)) was -0.0331. The Bliss excess [16] was -0.0241 and the Bliss excess [17] was 0.0201.
For `CN(C)CCCOc1ccc(-c2ccc3ncc4c(c3c2)n(C2CCOCC2)c(=O)n4C)cn1` [AZD0156] + C[C@@H]1COCCN1C2=NC(=NC(=C2)C3(CC3)[S@](=N)(=O)C)C4=C5C=CNC5=NC=C4 [AZD6738] (first compound max 1 µM, 7x7, partner max 10 µM), the Bliss excess [1] was 0.0087, the Bliss excess [2] was -0.006 and the Bliss excess [3] was 0.0261. For the same molecule, the Bliss excess [4] was 0.0549, the Bliss excess [5] was 0.0291 and the Bliss excess [6] was -0.0126. For the same molecule, the Bliss excess [7] was -0.0049, the Bliss excess [8] was 0.0318 and the Bliss excess [9] was 0.0537. For the same molecule, the Bliss excess (WM793B (Melanoma)) was 0.0342, the Bliss excess [10] was -0.0116 and the Bliss excess (SF268 (Low Grade Glioma)) was -0.0359. It also gave a Bliss excess [11] of -0.0078, a Bliss excess [12] of 0.0699 and a Bliss excess [13] of -0.0218. For the same molecule, the Bliss excess [14] was -0.0311, the Bliss excess [15] was 0.0072 and the Bliss excess (LN-229 (Glioblastoma)) was -0.0412. The Bliss excess [16] was -0.0343 and the Bliss excess [17] was -0.0261.
`CN(C)CCCOc1ccc(-c2ccc3ncc4c(c3c2)n(C2CCOCC2)c(=O)n4C)cn1` [AZD0156] + O=C(c1cc(Cc2n[nH]c(=O)c3ccccc23)ccc1F)N1CCN(C(=O)C2CC2)CC1 [Olaparib] (first compound max 3 µM, partner max 3 µM) showed a Bliss excess [2] of -0.0349, a Bliss excess [3] of 0.0067 and a Bliss excess [4] of 0.198. For the same molecule, the Bliss excess [5] was 0.0682, the Bliss excess [6] was 0.0042 and the Bliss excess [7] was 0.141. It also gave a Bliss excess [8] of 0.092, a Bliss excess [9] of 0.0039 and a Bliss excess (WM793B (Melanoma)) of 0.0206. For the same molecule, the Bliss excess [10] was 0.0591, the Bliss excess (SF268 (Low Grade Glioma)) was -0.0347 and the Bliss excess [11] was -0.0236. It also gave a Bliss excess [12] of 0.11, a Bliss excess [13] of 0.0049 and a Bliss excess [14] of -0.0076. It also gave a Bliss excess [15] of -0.0028, a Bliss excess (LN-229 (Glioblastoma)) of -0.0258 and a Bliss excess [16] of 0.003. For the same molecule, the Bliss excess [17] was 0.154.
In the case of `C=CCn1c(=O)c2cnc(Nc3ccc(N4CCN(C)CC4)cc3)nc2n1-c1cccc(C(C)(C)O)n1` [AZD1775] + C1CN(CCC1(C(=O)N[C@@H](CCO)C2=CC=C(C=C2)Cl)N)C3=NC=NC4=C3C=CN4 [Capivasertib] (first compound max 3 µM, partner max 3 µM), the Bliss excess [2] is reported as -0.0534, the Bliss excess [3] is reported as 0.0001 and the Bliss excess [4] is reported as -0.0207. For the same molecule, the Bliss excess [5] was -0.0274, the Bliss excess [6] was -0.0476 and the Bliss excess [7] was -0.0252. It also gave a Bliss excess [8] of -0.0046, a Bliss excess [9] of 0.0615 and a Bliss excess (WM793B (Melanoma)) of -0.0157. The Bliss excess [10] was -0.0055, the Bliss excess (SF268 (Low Grade Glioma)) was -0.009 and the Bliss excess [11] was -0.0573. The Bliss excess [12] was 0.0484, the Bliss excess [13] was -0.0135 and the Bliss excess [14] was 0.0133. The Bliss excess [15] was -0.0736, the Bliss excess (LN-229 (Glioblastoma)) was -0.062 and the Bliss excess [16] was 0.0141. For the same molecule, the Bliss excess [17] was -0.0913.
In the case of `C=CCn1c(=O)c2cnc(Nc3ccc(N4CCN(C)CC4)cc3)nc2n1-c1cccc(C(C)(C)O)n1` [AZD1775] + C[C@@H]1COCCN1C2=NC(=NC(=C2)C3(CC3)[S@](=N)(=O)C)C4=C5C=CNC5=NC=C4 [AZD6738] (first compound max 1 µM, partner max 10 µM), the Bliss excess [1] is reported as 0.0126, the Bliss excess [2] is reported as -0.0732 and the Bliss excess [3] is reported as 0.0437. It also gave a Bliss excess [4] of 0.083, a Bliss excess [5] of 0.0418 and a Bliss excess [6] of -0.0029. The Bliss excess [7] was 0.0239, the Bliss excess [8] was 0.0266 and the Bliss excess [9] was 0.0676. It also gave a Bliss excess (WM793B (Melanoma)) of -0.034, a Bliss excess [10] of 0.0536 and a Bliss excess (SF268 (Low Grade Glioma)) of 0.0337. For the same molecule, the Bliss excess [11] was -0.0426, the Bliss excess [12] was 0.0505 and the Bliss excess [13] was 0.0238. It also gave a Bliss excess [14] of 0.0196, a Bliss excess [15] of -0.0711 and a Bliss excess (LN-229 (Glioblastoma)) of -0.0069. The Bliss excess [16] was 0.0014 and the Bliss excess [17] was -0.0086.
With `C=CCn1c(=O)c2cnc(Nc3ccc(N4CCN(C)CC4)cc3)nc2n1-c1cccc(C(C)(C)O)n1` [AZD1775] + O=C(c1cc(Cc2n[nH]c(=O)c3ccccc23)ccc1F)N1CCN(C(=O)C2CC2)CC1 [Olaparib] (first compound max 1 µM, partner max 10 µM) the Bliss excess [1] was -0.03, the Bliss excess [2] was -0.0515 and the Bliss excess [3] was -0.0561. The Bliss excess [4] was -0.0282, the Bliss excess [5] was 0.0252 and the Bliss excess [6] was -0.0138. For the same molecule, the Bliss excess [7] was -0.0411, the Bliss excess [8] was -0.0247 and the Bliss excess [9] was -0.0303. It also gave a Bliss excess (WM793B (Melanoma)) of -0.0236, a Bliss excess [10] of -0.0652 and a Bliss excess (SF268 (Low Grade Glioma)) of -0.0312. The Bliss excess [11] was -0.032, the Bliss excess [12] was -0.0229 and the Bliss excess [13] was -0.035. It also gave a Bliss excess [14] of -0.0482, a Bliss excess [15] of -0.005 and a Bliss excess (LN-229 (Glioblastoma)) of -0.0851. The Bliss excess [16] was -0.0861 and the Bliss excess [17] was -0.0148.
